Laboratory results taken from patent US20030087430A1 (priority 2001, published 2003).

Assays:
Salmonella [1] = experiment: Intracellular growth of Salmonella in RAW 264.7 macrophages (colony forming units); format: cell-based, S. typhimurium
Method: RAW 264.7 macrophages were plated in triplicate at a density of 5×10^5 cells/well, and incubated for 6 hours prior to infection with various treatments (DMEM-FBS, DMEM-LPDS, DMEM-D-FBS+30 uM Mevinolin, or DMEM-FBS+30 uM Mevinolin, or DMEM-FBS+30 uM Mevinolin+150 uM mevalonate). Cells were infected at a multiplicity of infection of 10 bacteria per cell for 15 minutes at 37° C. After infection, monolayers were incubated in media containing 100 ug/ml gentamicin to kill extracellular bacteria and then maintained in media containing 10 ug/ml for the remainder of the experiment. At 20 hours post infection, the cells were washed three times in PBS, lysed in 1% Triton X-100 and then plated to determine colony forming units.
RAW 264.7 macrophages were plated in triplicate at a density of 4×10^5 cells/well, and infected with bacteria at a multiplicity of infection of 10 bacteria per cell for 15 minutes at 37° C.
After infection, the 12 ug/ml of 4,4,10-β trimethyl-trans-decal-3β-ol (TMD) inhibitor was added to the media which also contained 100 ug/ml gentamicin. At 2 hours post infection, the gentamicin concentration was lowered to 10 ug/ml and maintained for the remainder of the experiment. At 20 hours post infection, cells were lysed with 1% Triton X-100 and bacteria were plated for colony forming units.
Macrophages were treated with 50 nM mevinolin for 3 days prior to infection. Cells were infected as described above, lysed with Triton X-100 at 2 and 20 hours post infection, and then plated to determine colony forming units.

[2] = system: conversion of squalene oxide to lanosterol; experiment: Cholesterol synthesis in TMD-treated macrophages; format: cell-based; conditions: 12 ug/ml TMD, RAW 264.7 macrophages
Salmonella [3] = experiment: Extracellular growth of Salmonella in Luria broth (optical density); format: cell-based; conditions: LB containing 30 uM mevinolin, 37° C., optical density at 23 hours and growth curve
Method: Triplicate cultures of Salmonella were grown in a shaking incubator at 37° C. in plain LB, or LB containing 30 uM Mevinolin, and optical density was recorded at 23 hours after inoculation (results shown in FIG. 4A). Triplicate cultures of Salmonella were grown in a shaking incubator at 37° C. in plain LB or in LB containing 30 uM Mevinolin and optical density measurements were used to construct a growth curve (results shown in FIG. 4B).

RAW 264.7 macrophages = experiment: Host cell viability (Alamar Blue reduction); format: cell-based; conditions: 10 nM to 100 uM mevinolin with or without mevalonate, 24 hours, Alamar Blue 3 hours
Method: RAW 264.7 macrophages were plated at a density of 1×10^5 cells/well and each sample represents the mean of six wells. Cells were treated with concentrations of mevinolin at 10 nM (1), 100 nM (2), 500 nM (3), 1 uM (4), 10 uM (5), 50 uM (6), 100 uM (7), 50 uM mevinolin+50 uM mevalonate (8), 50 uM mevinolin+150 uM mevalonate (9), 100 uM mevinolin+50 uM mevalonate (10), and 100 uM mevinolin+150 uM mevalonate (11), for 24 hours at 37° C. and then incubated with Alamar Blue for 3 hours.

Legionella = format: cell-based
[4] = system: RAW264.7 macrophages infected with S. typhimurium (SL1344); experiment: TUNEL staining of Salmonella-infected macrophages (apoptosis); format: cell-based; conditions: 30 μM mevinolin from 4 hours prior to infection, 13 hours post infection
Method: RAW264.7 macrophages were treated with 30 uM mevinolin starting at 4 hours prior to infection. Infections were done with S. typhimurium (SL1344) at a moi of 10 bacteria per cell. At 13 hours post infection, cells were fixed and processed for TUNEL staining. At least 100 infected and 100 uninfected cells were counted in each monolayer and scored for TUNEL staining. Uninfected cells (black) and infected cells (gray) are shown. Averages of duplicate samples are shown.

| SMILES | intracellular survival of Salmonella (Salmonella [1]; 12 ug/ml TMD added after infection, RAW 264.7 macrophages, CFU at 20 hours post infection) | cholesterol synthesis of treated cells [2] | intracellular growth of Salmonella at physiologically relevant concentration (Salmonella [1]; 50 nM mevinolin for 3 days prior to infection, CFU at 2 and 20 hours post infection) | reversal of the defect in Salmonella intracellular growth by mevalonate (Salmonella [1]; 30 uM mevinolin + 150 uM mevalonate, RAW 264.7 macrophages) | Salmonella's intracellular survival (Salmonella [1]; RAW 264.7 macrophages, 30 uM mevinolin from 6 hours prior to infection, CFU at 20 hours post infection) | bacterial growth in liquid culture (extracellular growth of Salmonella) (Salmonella [3]) | host cell viability (RAW 264.7 macrophages) | intracellular growth of Legionella in human macrophages (Legionella) | reversal of the defect in Legionella intracellular growth by mevalonate (Legionella) | apoptosis in Salmonella-infected macrophages (TUNEL staining) [4] |
| --- | --- | --- | --- | --- | --- | --- | --- | --- | --- | --- |
| CC1(C)[C@@H](O)CC[C@]2(C)CCCC[C@@H]12 (relative stereo) [TMD, 4,4,10-β trimethyl-trans-decal-3β-ol] | did not lead to a decrease in intracellular survival of Salmonella | accumulated intermediate precursors and made very little cholesterol |  |  |  |  |  |  |  |  |
| CC[C@H](C)C(=O)O[C@H]1C[C@@H](C)C=C2C=C[C@H](C)[C@H](CC[C@@H]3C[C@@H](O)CC(=O)O3)[C@H]21 [mevinolin] |  |  | inhibit the intracellular growth of Salmonella | can be reversed by the addition of mevalonate | decreased Salmonella's intracellular survival by a factor of ten | does not affect bacterial growth in liquid culture | host cell viability is not affected | inhibited intracellular growth of Legionella in human macrophages | could be reversed by the addition of mevalonate | induces apoptosis in Salmonella-infected macrophages |
